Molecules are shown by their SMILES. Some results are limits rather than exact numbers.

One test addresses T1, full-length human BTK (Homo sapiens, UniProt Q06187).
T1 construct: 2.5× stocks of full-length human BTK (08-080) from CarnaBio USA, Inc; purchased CarnaBio USA, Inc., Natick, Mass; 08-080
As to the kind of experiment: BTK IC50 Enzyme Assay (Assay A), microfluidic off-chip mobility shift kinase assay. In kind it is biochemical. The conditions noted are these: kinKDR peptide substrate, 90 min at 27° C.

For test [1], the system named is anti-IgM-induced expression of CD69 in freshly isolated human peripheral blood mononuclear cells (PBMCs). As to the kind of experiment: Assay B: inhibition of anti-IgM-induced expression of CD69 on CD19 positive cells (B cells) in human PBMCs. In kind it is cell-based. The note with it: PBMC, 1 h pre-treatment, overnight anti-human IgM stimulation, CD69 on CD19 positive cells by flow cytometry, read-out: Assay B (mol/L (M)). As to the method:
Btk is critical for mediating the signalling of B cell antigen receptor (BCR) after anti-IgM stimulation. Based on this principle, a functional cell-based assay was established to determine the potency of compounds at inhibiting anti-IgM-induced expression of CD69, a downstream BCR signalling event, in freshly isolated human peripheral blood mononuclear cells (PBMCs). In the assay, a 90 μl PBMC suspension containing 2.5×10^5 cells was pre-treated with 10 μl of test compound at various concentrations for an hour, and then incubated overnight (approximately 16-18 hours) with 5 μl 420 μg/ml affiniPure F(ab′)2 fragment goat anti-human IgM Fc fragment per well (Dianova, Cat. No.: 109-006-129). After the incubation, the cells were washed and immunostained with an APC labelled mouse anti-human CD69 (BD Biosciences; clone: FN50), a PerCP-Cy5.5 labelled mouse anti-human CD19 (BD Biosciences; clone: SJ25C1) and a FITC-labelled mouse anti-human CD3 (BD Biosciences; clone: HIT3a), and fixed for flow cytometric analysis of CD69 expression on CD19 positive cells (B cells). The percentage of CD69 expressing CD19 positive cells was plotted against the concentrations of test compounds to obtain a concentration response curve, and calculate an IC50 value as a measure of the potency of test compounds in the assay.
(In general: A flow cytometer gives signals particle by particle.)

T1 sequence (Q06187 whole entry): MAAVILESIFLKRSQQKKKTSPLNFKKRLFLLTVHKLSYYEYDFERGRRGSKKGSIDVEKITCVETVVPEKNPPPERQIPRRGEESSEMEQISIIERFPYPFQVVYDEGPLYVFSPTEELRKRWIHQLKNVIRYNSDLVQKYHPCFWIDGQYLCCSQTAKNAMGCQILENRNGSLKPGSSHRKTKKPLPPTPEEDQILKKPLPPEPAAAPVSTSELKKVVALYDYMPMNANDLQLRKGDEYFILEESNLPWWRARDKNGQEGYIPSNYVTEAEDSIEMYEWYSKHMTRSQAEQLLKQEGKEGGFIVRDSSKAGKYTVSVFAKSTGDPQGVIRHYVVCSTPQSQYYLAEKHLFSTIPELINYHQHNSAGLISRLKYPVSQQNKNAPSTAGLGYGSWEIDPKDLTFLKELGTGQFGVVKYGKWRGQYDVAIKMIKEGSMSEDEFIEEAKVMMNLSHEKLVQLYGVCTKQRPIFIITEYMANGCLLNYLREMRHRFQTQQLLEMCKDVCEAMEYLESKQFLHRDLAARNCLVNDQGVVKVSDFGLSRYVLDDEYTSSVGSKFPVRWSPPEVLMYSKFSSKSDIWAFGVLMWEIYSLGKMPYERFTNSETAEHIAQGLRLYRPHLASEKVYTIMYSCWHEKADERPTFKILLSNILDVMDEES

On to `O=C(CCCCCNc1ccc([N+](=O)[O-])c2nonc12)NCCN1CCN(C/C=C/C(=O)N2CC(n3ccc4ncnc(Oc5ccc(Oc6ccccc6)cc5)c43)C2)CC1` [Compound 31, (E)-6-((7-nitrobenzo[c][1,2,5]oxadiazol-4-yl)amino)-N-(2-(4-(4-oxo-4-(3-(4-(4-phenoxyphenoxy)-5H-pyrrolo[3,2-d]pyrimidin-5-yl)azetidin-1-yl)but-2-en-1-yl)piperazin-1-yl)ethyl)hexanamide], for which the values for the IC50 (on full-length human BTK; in test [1]) were less than 100 nM and 1e-06 to 5e-06 M, respectively.
As for `N#CN1CCC(n2ccc3ncnc(Oc4ccc(Oc5ccccc5)cc4)c32)C1` (stereo not drawn) [Compound 60, 3-[4-(4-phenoxyphenoxy)-5H-pyrrolo[3,2-d]pyrimidin-5-yl]pyrrolidine-1-carbonitrile], the IC50 was less than 100 nM on full-length human BTK and 1e-07 to 1e-06 M in test [1].
With `N#CN1CC[C@H](n2ccc3ncnc(Oc4ccc(Oc5ccccc5)cc4)c32)C1` [Compound 72, (3S)-3-[4-(4-phenoxyphenoxy)-5H-pyrrolo[3,2-d]pyrimidin-5-yl]pyrrolidine-1-carbonitrile], the IC50 on full-length human BTK is less than 100 nM; in test [1] it was 1e-07 to 1e-06 M.
